Assay results reported in US20260308278A1, “ANTIBODY THAT BINDS TO C3bBb” (Hoffmann-La Roche Inc., priority 2023, published 2026).

Columns and labels:
[1] = system: alternative complement pathway in human serum; assay: Wieslab Complement system Alternative pathway assay; assay type: biochemical; conditions: comparative compounds, Table E14
Description: This kit is an enzyme immunoassay for the determination of functional alternative complement pathway in human serum.
It combines principles of a hemolytic assay for complement activation with the use of specific antibodies to detect the generated neoantigen, which is proportional to the functional activity of the complement pathway. […] This mixture was diluted 1:18 in a diluent with a specific blocker (so that only AP will be activated) and incubated for another 15 min at RT. Solution was added to a 96-well plate specifically coated with activators of the AP and incubated for 60 min at 37° C. Wells were washed and C5b-9 detected following the protocol.

[2] = system: C3bBb from Macaca Fascicularis; assay: Cross-reactivity hemolysis assay, Macaca Fascicularis; assay type: cell-based, Macaca Fascicularis (Cynomolgus); conditions: 37° C., 20 min
C3 convertase (C3bBb) = target: T1, C3 convertase (C3bBb) (Homo sapiens, UniProt P00751+P01024); assay: BLI based C3b deposition assay; assay type: biochemical; conditions: comparative compounds, Table E14
T1 construct: C3b fragment of complement component C3; from tissue; host or cells: plasma (factor B and factor D)
T1 sequence (P01024 23-667 limits assumed): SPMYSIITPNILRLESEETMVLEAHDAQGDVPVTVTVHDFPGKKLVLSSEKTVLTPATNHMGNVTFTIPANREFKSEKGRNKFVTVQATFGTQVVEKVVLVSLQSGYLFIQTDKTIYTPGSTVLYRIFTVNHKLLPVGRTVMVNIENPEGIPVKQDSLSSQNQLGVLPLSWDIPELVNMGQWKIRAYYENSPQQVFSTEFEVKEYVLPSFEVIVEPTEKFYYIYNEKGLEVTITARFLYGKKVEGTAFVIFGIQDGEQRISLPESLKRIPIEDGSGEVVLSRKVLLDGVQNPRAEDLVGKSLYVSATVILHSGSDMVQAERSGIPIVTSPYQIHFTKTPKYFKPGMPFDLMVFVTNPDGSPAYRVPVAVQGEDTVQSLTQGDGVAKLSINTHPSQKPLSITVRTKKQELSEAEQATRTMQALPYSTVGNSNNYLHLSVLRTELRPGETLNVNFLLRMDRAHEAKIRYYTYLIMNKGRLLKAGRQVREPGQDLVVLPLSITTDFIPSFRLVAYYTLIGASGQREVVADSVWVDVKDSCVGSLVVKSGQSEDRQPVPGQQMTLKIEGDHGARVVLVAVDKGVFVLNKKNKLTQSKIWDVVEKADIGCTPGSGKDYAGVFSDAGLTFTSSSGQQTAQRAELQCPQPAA
T1 sequence (P01024 749-1663 limits assumed): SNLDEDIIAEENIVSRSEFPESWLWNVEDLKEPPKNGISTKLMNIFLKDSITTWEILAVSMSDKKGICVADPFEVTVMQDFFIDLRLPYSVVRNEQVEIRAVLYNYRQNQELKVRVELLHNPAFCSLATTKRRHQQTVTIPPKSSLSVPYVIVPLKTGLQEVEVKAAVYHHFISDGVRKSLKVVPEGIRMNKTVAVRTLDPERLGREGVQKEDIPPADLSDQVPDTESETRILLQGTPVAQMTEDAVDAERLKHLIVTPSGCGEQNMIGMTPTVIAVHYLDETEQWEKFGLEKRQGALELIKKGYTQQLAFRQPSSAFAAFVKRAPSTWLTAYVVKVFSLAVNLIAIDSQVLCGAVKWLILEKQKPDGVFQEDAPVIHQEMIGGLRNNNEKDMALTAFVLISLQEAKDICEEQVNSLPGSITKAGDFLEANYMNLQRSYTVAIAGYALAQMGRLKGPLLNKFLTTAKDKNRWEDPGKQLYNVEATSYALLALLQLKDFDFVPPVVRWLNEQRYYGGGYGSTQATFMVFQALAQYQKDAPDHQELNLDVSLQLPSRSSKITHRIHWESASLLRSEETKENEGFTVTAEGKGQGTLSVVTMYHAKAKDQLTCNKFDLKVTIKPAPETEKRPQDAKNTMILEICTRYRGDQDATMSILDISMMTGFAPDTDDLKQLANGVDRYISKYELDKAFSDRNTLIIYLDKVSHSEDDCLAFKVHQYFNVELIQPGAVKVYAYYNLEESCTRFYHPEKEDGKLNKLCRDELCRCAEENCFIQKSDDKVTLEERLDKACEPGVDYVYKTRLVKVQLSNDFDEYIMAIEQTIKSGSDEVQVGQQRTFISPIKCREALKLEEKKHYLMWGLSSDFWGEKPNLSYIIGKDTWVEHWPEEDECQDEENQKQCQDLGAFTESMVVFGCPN
T1 sequence (P00751 260-764 limits assumed): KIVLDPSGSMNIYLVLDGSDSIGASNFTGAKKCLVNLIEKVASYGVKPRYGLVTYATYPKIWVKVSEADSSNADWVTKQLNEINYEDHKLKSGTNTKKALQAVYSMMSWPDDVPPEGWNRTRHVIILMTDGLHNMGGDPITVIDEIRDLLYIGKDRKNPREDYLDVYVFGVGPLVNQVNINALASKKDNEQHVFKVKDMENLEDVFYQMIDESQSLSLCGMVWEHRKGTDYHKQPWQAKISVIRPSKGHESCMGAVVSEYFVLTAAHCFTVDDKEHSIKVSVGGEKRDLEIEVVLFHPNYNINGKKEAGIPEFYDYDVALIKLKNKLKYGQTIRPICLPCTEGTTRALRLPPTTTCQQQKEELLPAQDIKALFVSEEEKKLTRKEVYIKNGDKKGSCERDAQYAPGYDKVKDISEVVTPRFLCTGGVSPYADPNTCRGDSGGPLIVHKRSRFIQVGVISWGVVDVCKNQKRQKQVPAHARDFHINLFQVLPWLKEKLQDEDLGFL
Description: In another experiment, the potency of the antibodies was assessed via a BLI based C3b deposition assay.
BLI based C3b deposition assay: The activated carbonyl group created upon C3 cleavage by the C3 convertase reacts and forms covalent adducts with nucleophiles in close proximity to the enzyme. We utilized this property to measure convertase activity by quantifying the C3b mass deposited on a BLI sensor loaded with C3bBb and exposed to C3.

classical pathway = assay: Classical pathway hemolysis assay (Ab-sensitized sheep erythrocytes); assay type: cell-based, human
Description: Everything was prepared at RT except for the serum which was kept on ice so that the complement cascade would not start. Washed Ab-sensitized sheep erythrocytes (EA) were added to a V-shaped 96-well plate together with the dilution series of antibodies in a buffer appropriate for the classical pathway. Normal human serum was added at a final assay concentration of 2% and mixed gently with the other components. Complement activation was started by incubating the plates at 37° C. shaking continuously at 600 rpm to prevent the total sedimentation of the EAs. Hemolysis reaction was stopped after 30 min with the addition of ice-cold NaCl-solution containing 10 mM EDTA. Plates were centrifuged for 2 min at 1000×g at 4° C. to pellet the non-lysed EAs. […] Percentage of hemolysis was calculated: (OD test sample−OD BG or EDTA ctrl)/(OD full lysis−OD BG or EDTA ctrl)×100. IC50 values were calculated using Xlfit.

[3] = system: C3bBb from Chlorocebus sabaeus; assay: Cross-reactivity hemolysis assay, Chlorocebus sabaeus; assay type: cell-based, Chlorocebus sabaeus (African Green Monkey); conditions: RT, 20 min

IC50 [1] | IC50 (C3 convertase (C3bBb)) | Molecule | IC50 [2] | IC50 (classical pathway; 2% normal human serum, sheep erythrocytes) | IC50 [3] | inhibition of the classical pathway (classical pathway)
0.274 µM | 0.2 µM | Pegcetacoplan [APL-2] | 0.316 µM | 1.02 µM | 0.147 µM | –
– | – | CCO[C@H]1CCN(Cc2c(OC)cc(C)c3[nH]ccc23)[C@H](c2ccc(C(=O)O)cc2)C1 [LNP023, Iptacopan] | – | – | – | does not inhibit the classical pathway
